Measurements published in PubChem BioAssay (NCI).
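Following 48 hours of exposure in 96-well plates, responses at five concentrations were used to interpolate endpoints linearly. The concentration for 50% growth inhibition is given as GI50. TGI: total growth inhibition.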

Key:
Assay in all cases: growth of human tumour cells (NCI), 48 h
CCRF-CEM leukemia = test system: CCRF-CEM leukemia
NCI-H226 lung = test system: NCI-H226 lung
786-0 renal = test system: 786-0 renal
MDA-MB-435 = test system: MDA-MB-435
SNB-19 CNS = test system: SNB-19 CNS
SF-539 CNS = test system: SF-539 CNS
UO-31 renal = test system: UO-31 renal
NCI-H460 lung = test system: NCI-H460 lung
OVCAR-5 ovarian = test system: OVCAR-5 ovarian
SN12C renal = test system: SN12C renal
A549 NSCLC = test system: A549 NSCLC
MALME-3M melanoma = test system: MALME-3M melanoma
NCI-H23 lung = test system: NCI-H23 lung
A498 renal = test system: A498 renal
HCC-2998 colon = test system: HCC-2998 colon
RPMI-8226 leukemia = test system: RPMI-8226 leukemia
UACC-62 melanoma = test system: UACC-62 melanoma
HL-60(TB) leukemia = test system: HL-60(TB) leukemia
EKVX NSCLC = test system: EKVX NSCLC
KM12 colon = test system: KM12 colon
SK-MEL-5 melanoma = test system: SK-MEL-5 melanoma
SF-295 CNS = test system: SF-295 CNS
U251 CNS = test system: U251 CNS
IGROV1 ovarian = test system: IGROV1 ovarian
SF-268 CNS = test system: SF-268 CNS
SNB-75 CNS = test system: SNB-75 CNS
SK-OV-3 ovarian = test system: SK-OV-3 ovarian

## N=C(N)c1ccc(-c2ccc(-c3ccc(F)cc3)o2)o1
CCRF-CEM leukemia
  GI50: 1840 nM
  TGI: 5570 nM
NCI-H226 lung
  GI50: 2820 nM
  TGI: 9710 nM
786-0 renal
  GI50: 1660 nM
  TGI: 3490 nM
MDA-MB-435
  GI50: 347 nM
  TGI: 1300 nM
SNB-19 CNS
  GI50: 1730 nM
  TGI: 4050 nM
SF-539 CNS
  GI50: 1630 nM
  TGI: 3080 nM
UO-31 renal
  GI50: 1430 nM
  TGI: 2780 nM
NCI-H460 lung
  GI50: 1760 nM
  TGI: 3360 nM
OVCAR-5 ovarian
  GI50: 1660 nM
  TGI: 3400 nM
SN12C renal
  GI50: 1800 nM
  TGI: 3650 nM
A549 NSCLC
  GI50: 1650 nM
  TGI: 3300 nM
MALME-3M melanoma
  GI50: 1630 nM
  TGI: 3260 nM
NCI-H23 lung
  GI50: 1930 nM
  TGI: 4880 nM
A498 renal
  GI50: 1900 nM
  TGI: 5950 nM
HCC-2998 colon
  GI50: 1370 nM
  TGI: 2810 nM
RPMI-8226 leukemia
  GI50: 2480 nM
  TGI: 6100 nM
UACC-62 melanoma
  GI50: 1740 nM
  TGI: 3270 nM
HL-60(TB) leukemia
  GI50: 1800 nM
  TGI: 4400 nM
EKVX NSCLC
  GI50: 1350 nM
  TGI: 3180 nM
KM12 colon
  GI50: 1440 nM
  TGI: 3410 nM
SK-MEL-5 melanoma
  GI50: 1560 nM
  TGI: 2920 nM
SF-295 CNS
  GI50: 1510 nM
  TGI: 3050 nM
U251 CNS
  GI50: 1600 nM
  TGI: 3080 nM
IGROV1 ovarian
  GI50: 1580 nM
  TGI: 3350 nM
SF-268 CNS
  GI50: 1920 nM
  TGI: 4670 nM
SNB-75 CNS
  GI50: 1550 nM
  TGI: 3490 nM
SK-OV-3 ovarian
  GI50: 2320 nM
